# Test system: E. faecalis MMH594 whole cells (TyrDC)
# Assay: Inhibition of L-dopa decarboxylation in E. faecalis whole cells
# Type: cell-based, Enterococcus faecalis MMH594
# Conditions: for EC50: E. faecalis whole cells / cultures
# Protocol: Thus, a library of commercially available tyrosine and phenylalanine derivatives were evaluated for decarboxylation by Enterococcus faecalis MMH594 whole cells; decarboxylation efficiency of a given tyrosine analog was used to identify favorable aromatic fragments, with high conversion indicating a favorable arene scaffold. […] To quickly assess whether the trend in native decarboxylation activity can be translated to inhibitory activity, we evaluated benzyl aminooxy compounds with similar aromatic elements as inhibitors for L-dopa decarboxylation in E. faecalis MMH594 whole cells (10 μM inhibitor); high L-dopa recovery indicated high inhibitory efficiency. […] In addition, these compounds are either commercially available or can be accessed in a two-step synthetic sequence (European Journal of Medicinal Chemistry 2016, 108, 564-576). As shown, inhibitors without a para-hydroxyphenyl motif are not effective towards L-dopa decarboxylation in whole cells (FIG. 3B). Aminooxy compounds with this structural motif can inhibit L-dopa decarboxylation in E. faecalis cultures at low concentrations.
# AFMT analogs were evaluated for their inhibitory effects towards L-dopa decarboxylation using the same protocol as described above. 500 μM L-dopa was incubated anaerobically at 37° C. with E. faecalis MMH594 in the presence of 100 μM inhibitor for 18-24 h. The level of remaining L-dopa was measured by MS/MS and then normalized to the level of L-dopa from a mutant control. […] Since (S)-AFMT is the active AFMT enantiomer, the stereochemical assignments in FIG. 5 assume that the enantiomer with the higher inhibitory activity carries the […] configuration. Chiral configuration will be unambiguously determined via crystallography in the future.
EC50 [nM],SMILES,further results
2200,NOCc1ccc(O)c(F)c1 [3-fluoro-4-hydroxybenzyl aminooxy],–
1500,NOCc1ccc(O)cc1 [4-hydroxybenzyl aminooxy],–
–,"N[C@@](CF)(Cc1ccc(O)cc1)C(=O)O [AFMT, α-fluoromethyltyrosine]",EC50 (Enterococcus faecalis): 1400 nM
–,C[C@@](Cc1ccc(O)c(O)c1)(NN)C(=O)O [carbidopa],limiting L-dopa decarboxylation by E. faecalis (applicant's original study): ineffective
